Measurements taken from ChEMBL document CHEMBL1770074, “Syntheses and characterization of novel oxoisoaporphine derivatives as dual inhibitors for cholinesterases and amyloid beta aggregation” (Eur J Med Chem, 2011).

What was measured:
[1] = Inhibition of amyloid beta (1 to 42) aggregation assessed as inhibition of fibril formation at 10 uM by thioflavin-T fluorescent dye assay
SH-SY5Y = assay: cells; settings: Homo sapiens, 48 h
Description: Cytotoxicity against human SH-SY5Y cells assessed as cell viability after 48 hrs by MTT assay

Cholinesterase = Cholinesterase (Equus caballus, UniProt P81908)
Description: Inhibition of equine serum BChE by Ellman's method

Acetylcholinesterase = Acetylcholinesterase (Electrophorus electricus, UniProt O42275)
Acetylcholinesterase, sequence (O42275 whole entry): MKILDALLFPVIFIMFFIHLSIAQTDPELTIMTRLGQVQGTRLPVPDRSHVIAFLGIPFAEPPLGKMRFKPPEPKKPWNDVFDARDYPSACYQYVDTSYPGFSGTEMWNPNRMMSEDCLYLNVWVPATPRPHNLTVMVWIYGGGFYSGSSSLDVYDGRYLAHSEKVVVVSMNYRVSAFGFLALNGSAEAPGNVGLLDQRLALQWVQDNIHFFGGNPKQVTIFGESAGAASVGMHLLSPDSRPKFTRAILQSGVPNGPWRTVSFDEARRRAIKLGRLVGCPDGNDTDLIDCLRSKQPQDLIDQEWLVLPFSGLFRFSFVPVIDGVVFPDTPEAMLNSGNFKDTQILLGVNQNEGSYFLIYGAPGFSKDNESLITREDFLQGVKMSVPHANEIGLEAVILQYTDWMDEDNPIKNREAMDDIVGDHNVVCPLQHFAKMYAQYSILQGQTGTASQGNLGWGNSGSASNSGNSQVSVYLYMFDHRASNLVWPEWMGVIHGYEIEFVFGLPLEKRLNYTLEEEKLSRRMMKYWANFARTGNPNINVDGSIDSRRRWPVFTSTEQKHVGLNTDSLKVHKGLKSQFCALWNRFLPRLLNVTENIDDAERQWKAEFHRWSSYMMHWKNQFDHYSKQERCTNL
Description: Inhibition of electric eel AChE by Ellman's method

Cholinesterase, sequence (P81908 whole entry): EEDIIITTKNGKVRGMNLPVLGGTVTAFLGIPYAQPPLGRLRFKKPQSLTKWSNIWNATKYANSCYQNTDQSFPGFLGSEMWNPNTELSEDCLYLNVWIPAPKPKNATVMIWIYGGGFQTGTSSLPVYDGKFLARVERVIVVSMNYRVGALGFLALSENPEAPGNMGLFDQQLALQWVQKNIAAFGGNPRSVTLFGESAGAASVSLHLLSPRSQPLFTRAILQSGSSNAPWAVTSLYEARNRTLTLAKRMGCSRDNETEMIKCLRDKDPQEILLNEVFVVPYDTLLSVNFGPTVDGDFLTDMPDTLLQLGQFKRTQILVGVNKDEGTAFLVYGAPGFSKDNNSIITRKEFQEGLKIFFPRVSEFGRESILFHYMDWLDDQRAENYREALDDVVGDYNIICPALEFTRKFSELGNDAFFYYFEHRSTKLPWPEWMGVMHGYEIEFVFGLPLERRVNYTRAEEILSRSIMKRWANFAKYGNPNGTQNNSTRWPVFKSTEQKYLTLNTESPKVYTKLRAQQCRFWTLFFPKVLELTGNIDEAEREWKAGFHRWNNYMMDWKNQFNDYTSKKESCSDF

With C[N+]1(CC(=O)Nc2ccc3c(c2)C(=O)c2cccc4ccnc-3c24)CCCC1 the inhibition [1] was 52% and the IC50 (SH-SY5Y) was > 25 µM.

In the case of CN1CCN(CCOc2ccc3c4c(nccc24)-c2ccccc2C3=O)CC1, the inhibition [1] is reported as 43%, the IC50 (SH-SY5Y) is reported as > 25 µM and the IC50 (Cholinesterase) is reported as 2.75 µM. The IC50 (Acetylcholinesterase) was 0.432 µM.

C[N+]1(CCC(=O)Nc2ccc3c(c2)C(=O)c2cccc4ccnc-3c24)CCCC1 gave an inhibition [1] of 85.9% and an IC50 (SH-SY5Y) of 2.12 µM.

CCN(CC)CCOc1cnc2c3c(cccc13)C(=O)c1ccccc1-2 showed an inhibition [1] of 3.88%, an IC50 (SH-SY5Y) of 9.21 µM and an IC50 (Cholinesterase) of 1.49 µM. For the same compound, the IC50 (Acetylcholinesterase) was 0.7 µM.

For O=C1c2ccccc2-c2nccc3c(OCCN4CCCCC4)ccc1c23, the inhibition [1] was 38.9%, the IC50 (SH-SY5Y) was > 25 µM and the IC50 (Cholinesterase) was 2.21 µM. It also gave an IC50 (Acetylcholinesterase) of 0.088 µM.

For CCN(CC)CCCOc1ccc2c3c(nccc13)-c1ccccc1C2=O, the inhibition [1] was 14%, the IC50 (SH-SY5Y) was > 25 µM and the IC50 (Cholinesterase) was 2.7 µM. It also gave an IC50 (Acetylcholinesterase) of 0.0343 µM.

With O=C(CN1CCCC1)Nc1ccc2c(c1)C(=O)c1cccc3ccnc-2c13 the inhibition [1] was 45.4% and the IC50 (SH-SY5Y) was 5.37 µM.

With CN(C)CCCNc1ccc2c3c(nccc13)-c1ccccc1C2=O the inhibition [1] was 57.6%, the IC50 (SH-SY5Y) was > 25 µM and the IC50 (Cholinesterase) was 3.35 µM. It also gave an IC50 (Acetylcholinesterase) of 0.398 µM.

In the case of O=C(CCN1CCCC1)Nc1ccc2c(c1)C(=O)c1cccc3ccnc-2c13, the inhibition [1] is reported as 69.8% and the IC50 (SH-SY5Y) is reported as 4.57 µM.

With C[N+](C)(C)CCC(=O)Nc1ccc2c(c1)C(=O)c1cccc3ccnc-2c13 the inhibition [1] was 80.1% and the IC50 (SH-SY5Y) was > 25 µM.

In the case of C[N+](C)(C)CCCC(=O)Nc1ccc2c(c1)C(=O)c1cccc3ccnc-2c13, the inhibition [1] is reported as 58.6% and the IC50 (SH-SY5Y) is reported as > 25 µM.

For O=C1c2ccccc2-c2nccc3c(OCCCN4CCCCC4)ccc1c23, the inhibition [1] was 40.1%, the IC50 (SH-SY5Y) was > 25 µM and the IC50 (Cholinesterase) was 0.905 µM. It also gave an IC50 (Acetylcholinesterase) of 0.022 µM.

For CN(C)CCCC(=O)Nc1ccc2c(c1)C(=O)c1cccc3ccnc-2c13, the inhibition [1] was 65.2% and the IC50 (SH-SY5Y) was 3.27 µM.

In the case of C[N+]1(CCOc2cnc3c4c(cccc24)C(=O)c2ccccc2-3)CCCC1, the inhibition [1] is reported as 48.8%, the IC50 (SH-SY5Y) is reported as > 25 µM and the IC50 (Cholinesterase) is reported as 0.302 µM. The IC50 (Acetylcholinesterase) was 0.145 µM.

For CCN(CC)CCOc1ccc2c3c(nccc13)-c1ccccc1C2=O, the inhibition [1] was 10.7%, the IC50 (SH-SY5Y) was > 25 µM and the IC50 (Cholinesterase) was 3.07 µM. The IC50 (Acetylcholinesterase) was 0.201 µM.

O=C1c2ccccc2-c2ncc(OCCN3CCCC3)c3cccc1c23 gave an inhibition [1] of 31.8%, an IC50 (SH-SY5Y) of 12 µM and an IC50 (Cholinesterase) of 0.79 µM. For the same compound, the IC50 (Acetylcholinesterase) was 0.471 µM.

For C[N+]1(CCOc2cnc3c4c(cccc24)C(=O)c2ccccc2-3)CCCCC1, the inhibition [1] was 50.9%, the IC50 (SH-SY5Y) was > 25 µM and the IC50 (Cholinesterase) was 0.255 µM. It also gave an IC50 (Acetylcholinesterase) of 0.095 µM.

Compound COc1cc(/C=C/C(=O)CC(=O)/C=C/c2ccc(O)c(OC)c2)ccc1O has an inhibition [1] of 33.3%.

With CCN(CC)CCC(=O)Nc1ccc2c(c1)C(=O)c1cccc3ccnc-2c13 the inhibition [1] was 62.5% and the IC50 (SH-SY5Y) was 3.94 µM.

In the case of O=C1c2ccccc2-c2ncc(OCCN3CCCCC3)c3cccc1c23, the inhibition [1] is reported as 34.2%, the IC50 (SH-SY5Y) is reported as > 25 µM and the IC50 (Cholinesterase) is reported as 0.723 µM. The IC50 (Acetylcholinesterase) was 0.375 µM.

In the case of CC[N+](C)(CC)CCC(=O)Nc1ccc2c(c1)C(=O)c1cccc3ccnc-2c13, the inhibition [1] is reported as 82.7% and the IC50 (SH-SY5Y) is reported as > 25 µM.

In the case of CN1CCN(CCCOc2ccc3c4c(nccc24)-c2ccccc2C3=O)CC1, the inhibition [1] is reported as 33.6%, the IC50 (SH-SY5Y) is reported as > 25 µM and the IC50 (Cholinesterase) is reported as 5.5 µM. For the same compound, the IC50 (Acetylcholinesterase) was 0.405 µM.

CN(C)CCC(=O)Nc1ccc2c(c1)C(=O)c1cccc3ccnc-2c13 gave an inhibition [1] of 69.8% and an IC50 (SH-SY5Y) of 4.14 µM.

Compound CN(C)CCOc1cnc2c3c(cccc13)C(=O)c1ccccc1-2 has an inhibition [1] of 14.3%, an IC50 (SH-SY5Y) of 16.2 µM and an IC50 (Cholinesterase) of 1.64 µM. The IC50 (Acetylcholinesterase) was 1.56 µM.

For CC[N+](C)(CC)CCOc1cnc2c3c(cccc13)C(=O)c1ccccc1-2, the inhibition [1] was 45.5%, the IC50 (SH-SY5Y) was > 25 µM and the IC50 (Cholinesterase) was 0.708 µM. The IC50 (Acetylcholinesterase) was 0.258 µM.

With C[N+](C)(C)CCOc1cnc2c3c(cccc13)C(=O)c1ccccc1-2 the inhibition [1] was 42%, the IC50 (SH-SY5Y) was > 25 µM and the IC50 (Cholinesterase) was 0.972 µM. It also gave an IC50 (Acetylcholinesterase) of 0.933 µM.
